Patent US6369092B1, “Method for treating neoplasia by exposure to substituted benzimidazole derivatives” (Cell Pathways, Inc., priority 1998, dated 2002)

With `CCCc1nc2ccc(NC(=O)OC(C)(C)C)cc2n1Cc1ccccc1Cl` [I, 6-t-Butoxycarbonylamino-1-(2-Chlorobenzyl)-2-n-Propylbenzimidazole] the melting point was 166 to 168 °C.
